# Measurements published in patent US12115157B2, “3-phenoxyazetidin-1-yl-heteroaryl pyrrolidine derivatives and the use thereof as medicament” (Boehringer Ingelheim International GmbH, priority 2021, dated 2024).
# pIC50: −log10 of the molar value.
# What was measured:
# hERG channel = hERG channel (Homo sapiens (Human), UniProt Q12809); test: hERG channel assay (whole-cell patch clamp); assay type: cell-based; conditions: HEK293 cells stably transfected with hERG cDNA
# Excerpt: hERG Channel inhibition of compounds of the present invention was investigated as follows:
# HEK (human embryonic kidney) 293 cells were stably transfected with hERG cDNA. Cells determined for use in patch clamp experiments were cultivated without antibiotic.
# Cells were superfused with a bath solution containing (mM): NaCl (137), KCl (4.0), MgCl2 (1.0), CaCl2(1.8), Glucose (10), HEPES (10), pH 7.4 with NaOH. Patch pipettes were made from borosilicate glass tubing using a pipette and filled with pipette solution containing (mM): K-aspartate (130), MgCl2(5.0), EGTA (5.0), K2ATP (4.0), HEPES (10.0), pH 7.2 with KOH. Resistance of the microelectrodes was typically in the range between 2 MΩ and 5 MΩ.
# Membrane currents were recorded using an EPC-10 patch clamp amplifier (HEKA Electronics, Lambrecht, FRG) and PatchMaster software (HEKA). hERG-mediated membrane currents were recorded at typically 28° C., using the whole-cell configuration of the patch-clamp technique. Transfected HEK293 cells were clamped at a holding potential of −60 mV and hERG-mediated inactivating tail currents were elicited using a pulse pattern with fixed amplitudes (activation/inactivation: 40 mV for 2000 ms; recovery: 120 mV for 2 ms; ramp to 40 mV in 2 ms; inactivating tail current: 40 mV for 50 ms) repeated at 15 s intervals. During each inter-pulse interval 4 pulses scaled down by a factor of 0.2 were recorded for a P/n leak subtraction procedure. Rs compensation was employed up to a level that safely allows recording devoid of ringing. The remaining uncompensated Rs was recorded as well as actual temperature and holding current.
# The concentrations of the test item were applied sequentially on each of the different cells investigated. A steady state level of baseline current was measured for at least 5 sweeps prior to the application of the first test article concentration. The test item was dissolved in DMSO to yield a stock solution of 1000-fold the highest final concentration. This stock was diluted further in DMSO to stock solutions of 1000-fold the remaining final concentrations. Final dilutions in extracellular buffer were prepared freshly from these stocks by a 1:1000 dilution step each before starting the experiments.
# Peak current amplitudes were measured 3 ms after the ramp to +40 mV. For baseline and each concentration, the peak currents of the three last sweeps before application of the next concentration were averaged. Residual currents (I/I0) were calculated for each cell as the fraction of actual average peak current and average baseline peak current. Current inhibition was expressed as […]. Current inhibition for all cells was reported as mean ±SD. If possible, from mean current inhibition data the IC50 was estimated based on the Hill equation using a least squares procedure.
# [1] = system: primary human hepatocytes; test: In vitro metabolite profiling in primary human hepatocytes with or without proadifen; assay type: in vitro ADME; conditions: for % Parent of drug-related material: incubations in primary human hepatocytes, 1 μM test compound; for Contribution of amide hydrolysis to metabolism (incl. secondary metabolites): primary human hepatocytes, abundance of deacetylated metabolites relative to all metabolites
# Protocol: In vitro metabolite profiling to evaluate the involvement of non-CYP-enzyme-mediated metabolic pathways such as hydrolysis in addition to CYP-mediated pathways is based on the semiquantitative analysis of the formation of prototypic metabolites in incubations with liver microsomes (with and without beta-nicotinamide adenine dinucleotide phosphate, NADPH), primary human hepatocytes (with and without the pan-CYP inhibitor proadifen) and recombinant CYP enzymes.
# An additional measure to identify CYP-independent metabolic pathways is the use of the pan-CYP inhibitor proadifen in incubations of the test compound with human hepatocytes. In presence of proadifen, the CYP-related pathways are inhibited and metabolites would primarily be generated via non-CYP pathways.
# The involvement of non-CYP-enzymes in metabolic transformations of the test compound was further investigated using primary human hepatocytes in suspension in presence or absence of the pan-CYP inhibitor proadifen (50 μM final incubation concentration). After recovery from cryopreservation, human hepatocytes were incubated in Dulbecco's modified eagle medium supplemented with 3.5 μg glucagon/500 ml, 2.5 mg insulin/500 ml and 3.75 mg/500 ml hydrocortisone containing 5% (v/v) human serum.
# Following a 30 min preincubation in a cell culture incubator (37° C., 10% CO2) with or without 50 μM proadifen, test compound solution was spiked into the hepatocyte suspension to obtain a final cell density of 1.0*10^6 to 4.0*10^6 cells/ml (depending on the metabolic turnover rate of the compound observed with primary human hepatocytes), a final test compound concentration of 1 μM, and a final DMSO concentration of 0.05% (v/v).
# The cells were incubated for six hours (incubator, horizontal shaker) and samples were removed from the incubation after 0, 0.5, 1, 2, 4 or 6 hours, depending on the metabolic turnover rate. Samples were quenched with acetonitrile and pelleted by centrifugation. The supernatant was transferred to a 96-deepwell plate, evaporated under nitrogen, and resuspended prior to bioanalysis by liquid chromatography-high resolution mass spectrometry for identification of putative metabolites.
# The contribution of hydrolysis was calculated based on the abundance of the respective deacetylated metabolite(s) of the compounds of the present invention relative to all metabolites observed in incubations with human hepatocytes.
# human plasma proteins = test: Human plasma protein binding assay (equilibrium dialysis); assay type: in vitro ADME; conditions: 1 μM, 2 hours, 37° C.
# Protocol: Equilibrium dialysis (ED) technique was used to determine the approximate in vitro fractional binding of test compounds to plasma proteins. Dianorm Teflon dialysis cells (micro 0.2) were used. Each dialysis cell consists of a donor and an acceptor chamber, separated by an ultrathin semipermeable membrane with a 5 kDa molecular weight cut-off. Stock solutions for each test compound were prepared in DMSO at 1 mM and serially diluted to obtain a final test concentration of 1 μM. The subsequent dialysis solutions were prepared in plasma (supplemented with NaEDTA as anticoagulant), and aliquots of 200 μL test compound dialysis solution in plasma were dispensed into the donor (plasma) chambers. Aliquots of 200 μL dialysis buffer (100 mM potassium phosphate, pH 7.4) were dispensed into the buffer (acceptor) chamber. Incubation was carried out for 2 hours under rotation at 37° C. for establishing equilibrium.
# At the end of the dialysis period, aliquots obtained from donor and acceptor chambers, respectively, were transferred into reaction tubes, spiked with Internal Standard solution and processed for HPLC-MS/MS analysis. Analyte concentrations were quantified in aliquots of samples by HPLC-MS/MS against external calibration curves.
# Percent bound was calculated using the formula: % bound=(plasma concentration−buffer concentration/plasma concentration)×100
# human hepatocytes = test: Metabolic stability in human hepatocytes; assay type: in vitro ADME; conditions: human hepatocyte suspension, 1 μM; predicted hepatic clearance as percentage of hepatic blood flow
# Protocol: The metabolic degradation of a test compound was assayed in a human hepatocyte suspension. After recovery from cryopreservation, human hepatocytes were diluted in Dulbecco's modified eagle medium (supplemented with 3.5 μg glucagon/500 mL, 2.5 mg insulin/500 mL, 3.75 mg hydrocortisone/500 mL, 5% human serum) to obtain a final cell density of 1.0×10^6 cells/mL or 4.0×10^6 cells/mL, depending on the metabolic turnover rate of the test compound.
# Following a 30 minutes preincubation in a cell culture incubator (37° C., 10% CO2), test compound solution was spiked into the hepatocyte suspension, resulting in a final test compound concentration of 1 μM and a final DMSO concentration of 0.05% (v/v).
# The cell suspension was incubated at 37° C. (cell culture incubator, horizontal shaker) and samples were removed from the incubation after 0, 0.5, 1, 2, 4 and 6 hours. Samples were quenched with acetonitrile (containing internal standard) and pelleted by centrifugation. The supernatant was transferred to a 96-deepwell plate, and prepared for analysis of decline of parent compound by HPLC-MS/MS.
# The percentage of remaining test compound was calculated using the peak area ratio (test compound/internal standard) of each incubation time point relative to the time point 0 peak area ratio. The log-transformed data were plotted versus incubation time, and the absolute value of the slope obtained by linear regression analysis was used to estimate in vitro half-life (T1/2).
# In vitro intrinsic clearance (CLint) was calculated from in vitro T1/2 and scaled to whole liver using a hepatocellularity of 120×10^6 cells/g liver, a human liver per body weight of 25.7 g liver/kg as well as in vitro incubation parameters, applying the following equation: CL_[…]_IN VIVO[mL/min/kg]=(CL_[…][μL/min/10^6 cells]×hepatocellularity[10^6 cells/g liver]×liver factor[g/kg body weight])/1000
# Hepatic in vivo blood clearance (CL) was predicted according to the well-stirred liver model considering an average liver blood flow (QH) of 20.7 mL/min/kg: CL[mL/min/kg]=CL_[…]_IN VIVO[mL/min/kg]×hepatic blood flow[mL/min/kg]/(CL_[…]_IN VIVO[mL/min/kg]+hepatic blood flow[mL/min/kg])
# Results were expressed as percentage of hepatic blood flow: QH[%]=CL[mL/min/kg]/hepatic blood flow[mL/min/kg])
# hERG channel, sequence (Q12809 whole entry): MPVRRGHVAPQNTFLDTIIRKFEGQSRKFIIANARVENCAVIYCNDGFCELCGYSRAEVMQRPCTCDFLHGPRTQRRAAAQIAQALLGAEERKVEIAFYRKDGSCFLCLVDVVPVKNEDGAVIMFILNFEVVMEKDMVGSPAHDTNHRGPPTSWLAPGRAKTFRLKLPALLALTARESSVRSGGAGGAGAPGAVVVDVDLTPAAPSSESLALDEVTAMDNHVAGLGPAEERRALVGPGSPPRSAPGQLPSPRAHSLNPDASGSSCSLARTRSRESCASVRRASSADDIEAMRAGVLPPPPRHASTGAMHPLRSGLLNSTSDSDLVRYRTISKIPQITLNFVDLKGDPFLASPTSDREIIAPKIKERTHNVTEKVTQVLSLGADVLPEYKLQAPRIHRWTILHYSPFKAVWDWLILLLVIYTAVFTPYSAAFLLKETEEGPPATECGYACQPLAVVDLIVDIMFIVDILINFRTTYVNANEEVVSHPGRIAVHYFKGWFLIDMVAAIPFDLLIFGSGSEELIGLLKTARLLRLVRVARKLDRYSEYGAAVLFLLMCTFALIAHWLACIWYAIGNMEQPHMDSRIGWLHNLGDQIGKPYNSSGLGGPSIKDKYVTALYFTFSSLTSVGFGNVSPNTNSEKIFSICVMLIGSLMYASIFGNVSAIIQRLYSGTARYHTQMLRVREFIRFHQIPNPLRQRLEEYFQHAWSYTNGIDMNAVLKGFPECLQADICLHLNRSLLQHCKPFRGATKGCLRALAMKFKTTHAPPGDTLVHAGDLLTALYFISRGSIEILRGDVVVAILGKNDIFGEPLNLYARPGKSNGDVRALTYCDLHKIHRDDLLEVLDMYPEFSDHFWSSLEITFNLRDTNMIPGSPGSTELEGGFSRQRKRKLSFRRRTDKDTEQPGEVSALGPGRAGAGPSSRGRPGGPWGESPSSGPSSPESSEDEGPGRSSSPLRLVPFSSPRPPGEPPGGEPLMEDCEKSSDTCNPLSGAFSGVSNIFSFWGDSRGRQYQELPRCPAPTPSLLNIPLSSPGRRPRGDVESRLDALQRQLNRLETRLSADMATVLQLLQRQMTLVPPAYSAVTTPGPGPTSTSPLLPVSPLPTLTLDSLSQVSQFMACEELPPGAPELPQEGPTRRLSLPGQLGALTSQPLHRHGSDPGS
SMILES,pIC50 (hERG channel),% Parent of drug-related material [1] [%],Contribution of amide hydrolysis to metabolism (incl. secondary metabolites) [1] [%],Hu PPB (human plasma proteins) [% bound],Human HepStab (human hepatocytes) [% QH]
CC(=O)N1C[C@H](NC(=O)c2nccnc2N2CC(Oc3ccc(F)c(F)c3)C2)C(F)(F)C1 [Example 8b],< 5.00,84,19,79.7,9.2
CC(=O)N1C[C@H](NC(=O)c2nsnc2N2CC(Oc3ccc(F)c(F)c3)C2)C(F)(F)C1 [Example 13b],< 5.00,70,25,92.8,<4.1
